# PMC3108859 (Toxicology and applied pharmacology, 2009)
# Entries after “also recorded” stand apart in the source; their conditions may differ.
# Columns and labels:
# [1] = tested on: primary human hepatocytes; assay: Quantitative sub-lethal hepatotoxicity imaging assays; type: cell-based; settings: absence of cytokines, 24 or 48 hours
# [2] = tested on: primary human hepatocytes; type: cell-based; settings: 24 hours post-treatment
# [3] = tested on: primary human hepatocytes; type: cell-based; settings: no cytokines, 24 hr, doses less than each drug's own 100*Cmax
# [4] = tested on: rat hepatocyte-Kupffer cell co-culture; settings: ref Tukov et al., 2006; cited from earlier work
Structure (SMILES),"drug-induced sub-lethal hepatocyte injuries (lipid content, ROS, MtMP, GSH depletion) [1]",cytokine synergy effects by factorial analysis of caspase 3/7 activity [2],also measured
N[C@@H]1[C@H]2CN(c3nc4c(cc3F)c(=O)c(C(=O)O)cn4-c3ccc(F)cc3F)C[C@@H]12 [trovafloxacin],"only sub-lethal injury induced by both telithromycin and trovafloxacin that was statistically significant was MtMP depletion; also recorded: induced only one type of sub-lethal injury, mitochondrial membrane potential depletion","evident, in decreasing magnitude, for LPS and IL-1α but not other treatment variables",
C=C[C@H]1C[N@@]2CC[C@H]1C[C@H]2[C@H](O)c1ccnc2ccc(OC)cc12 [quinine],,,drug-only hepatotoxicity (greater than two-fold increase in LDH release) [3]: induced significant drug-only hepatotoxicity
CC[C@H]1OC(=O)[C@H](C)[C@@H](O[C@H]2C[C@@](C)(OC)[C@@H](O)[C@H](C)O2)[C@H](C)[C@@H](O[C@@H]2O[C@H](C)C[C@H](N(C)C)[C@H]2O)[C@](C)(OC)C[C@@H](C)C(=O)[C@H](C)[C@@H](O)[C@]1(C)O [clarithromycin],numerous sub-lethal hepatotoxicities,,
CCc1nn(CCCN2CCN(c3cccc(Cl)c3)CC2)c(=O)n1CCOc1ccccc1 [nefazodone],numerous sub-lethal hepatotoxicities,,
CC[C@H]1OC(=O)[C@H](C)C(=O)[C@H](C)[C@@H](O[C@@H]2O[C@H](C)C[C@H](N(C)C)[C@H]2O)[C@](C)(OC)C[C@@H](C)C(=O)[C@H](C)[C@H]2N(CCCCn3cnc(-c4cccnc4)c3)C(=O)O[C@]12C [telithromycin],"only sub-lethal injury induced by both telithromycin and trovafloxacin that was statistically significant was MtMP depletion; also recorded: induced only one type of sub-lethal injury, mitochondrial membrane potential depletion","evident, in decreasing magnitude, for LPS and IL-1α but not other treatment variables",
CN(C)CCCN1c2ccccc2Sc2ccc(Cl)cc21 [chlorpromazine],,,synergistic induction of hepatocellular death following LPS treatment [4]: synergistic induction of hepatocellular death following LPS treatment
